Measurements: PMC9413271, “Anti-Obesity Evaluation of Averrhoa carambola L. Leaves and Assessment of Its Polyphenols as Potential α-Glucosidase Inhibitors” (Molecules, 2022)
“Also recorded” adds a separate entry of the source.

Molecular target: α-glucosidase
Test: In vitro α-glucosidase inhibitory assay
Format: biochemical
Set-up: key to IC50 (α-glucosidase inhibition), dash = inactive: (-) indicates inactive compounds
Conditions: for IC50 / IC50 (α-glucosidase inhibition), dash = inactive: sucrose substrate, 37 °C, 30 min, n = 3; for IC50: read-out: IC50 (α-glucosidase inhibition); for α-glucosidase inhibitory activity (in words): in vitro
Description: The assay of α-glucosidase inhibitory activity of compounds was adopted from. Briefly, 100 μL of DMSO and 100 μL of α-glucosidase enzyme (5 U/mL in 0.15 M HEPES buffer) were added to 100 μL substrate (0.1 M sucrose solution dissolved into 0.15 M HEPES buffer). The mixture was vortexed for 5 sec and then incubated at 37 °C for 30 min to allow for enzymatic reaction. After incubation, the reaction was stopped by heating at 100 °C for 10 min in a block incubator. The formation of glucose was determined by means of glucose oxidase method, using a BF-5S Biosensor (Oji Scientific Instruments, Hyogo, Japan). Mathematically, α-glucosidase inhibitory activity of each sample was calculated according to this equation: (Average value of control (Ac) − average value of the sample (As))/Ac × 100.
The IC50 values were calculated from plots of log concentration of inhibitor concentration against the percentage inhibition curves, using Microsoft Excel 2016. The data were expressed as mean ± standard deviation (SD) of at least three independent experiments (n = 3).

Row | SMILES | IC50 [µM] | α-glucosidase inhibitory activity (in words) | IC50 (α-glucosidase inhibition), dash = inactive
1 | O=c1cc(-c2ccc(O)cc2)oc2cc(O)cc(O)c12 [Apigenin, reference compound] | 85.6 ± 0.01 |  | 
2 | C[C@H]1O[C@@H](Oc2cc3oc(-c4ccc(O)cc4)cc(=O)c3c(O)c2[C@H]2C[C@@H](O)[C@@H](O)[C@@H](CO)O2)[C@H](O)[C@@H](O)[C@@H]1O [Compound 1, apigenin 6-C-(2-deoxy-β-D-galactopyranoside)-7-O-β-D-quinovopyranoside] | 613 |  | 
3 | CC1OC(OC2C(c3c(O)cc4oc(-c5ccc(O)c(O)c5)cc(=O)c4c3O)OC(C)C(O)C2O)C(O)C(O)C1O [Compound 2, luteolin 6-C-α-L-rhamnopyranosyl-(1-2)-β-D-fucopyranoside] | 328 | highest inhibitory activity among all isolated flavone glycosides; also recorded: Potent inhibition | 
4 | O=c1cc(-c2ccc(O)cc2)oc2cc(O)c(C3OC(CO)C(O)C(O)C3O)c(O)c12 [Compound 3, apigenin 6-C-β-D-galactopyranoside] | 439 | Potent inhibition | 
5 | CC1OC(OC2C(Oc3cc(O)c(C4OC(C)C(O)C(O)C4OC(=O)C=Cc4ccc(O)cc4)c(O)c3C(=O)CCc3ccc(O)cc3)OC(CO)C2O)C(O)C(O)C1O (centres unmarked) [Compound 12, carambolaside Q] | 323.6 ± 0.06 | relatively strong activity; also recorded: Potent inhibition | 
6 | O=c1cc(-c2ccc(O)c(O)c2)oc2cc(O)cc(O)c12 [Luteolin, reference compound] | 48.2 ± 0.02 |  | 
7 | O=C(CCc1ccc(O)cc1)c1c(O)cc(O)cc1O [Phloretin, reference compound] | 110.4 ± 0.06 |  | 

Results, then the compound that gave them:

Row | IC50 [µM] | α-glucosidase inhibitory activity (in words) | IC50 (α-glucosidase inhibition), dash = inactive | SMILES
8 | 390 | Potent inhibition |  | CC1OC(OC2C(c3c(O)cc4oc(-c5ccc(O)cc5)cc(=O)c4c3O)OC(C)C(O)C2O)C(O)C(O)C1O [Compound 4, apigenin 6-C-α-L-rhamnopyranosyl-(1-2)-β-L-fucopyranoside]
9 |  | inactive | - | CC1OC(c2c(O)cc(OC3OC(CO)C(O)C3O)c(C(=O)CCc3ccc(O)cc3)c2O)C(O)C(O)C1OC1OC(CO)C(O)C(O)C1O (centres unmarked) [Compound 5, carambolaside M]
10 |  | inactive | - | CC1OC(OC2C(Oc3cc(O)c(C4OC(C)C(O)C(O)C4O)c(O)c3C(=O)CCc3ccc(O)cc3)OC(CO)C2O)C(O)C(O)C1O (centres unmarked) [Compound 6, carambolaside Ia]
11 |  | inactive | - | CC1OC(OC2C(Oc3cc(O)c(C4OC(C)C(O)C(OC5OC(C)C(O)C(O)C5O)C4OC(=O)C=Cc4ccccc4)c(O)c3C(=O)CCc3ccc(O)cc3)OC(CO)C2O)C(O)C(O)C1O (centres unmarked) [Compound 7, carambolaside J]
12 |  | inactive | - | CC(=O)OC1C(C)OC(c2c(O)cc(OC3OC(CO)C(O)C3OC3OC(C)C(O)C(O)C3O)c(C(=O)CCc3ccc(O)cc3)c2O)C(OC(=O)C=Cc2ccccc2)C1OC1OC(C)C(O)C(O)C1O [Compound 8, phloretin 3′-C-(2-O-(E)-cinnamoyl-3-O-β-D-fucopyranosyl-4-O-acetyl)-β-D-fucopyranosyl-6′-O-β-D fucopyranosyl-(1/2)-α-L arabinofuranoside]
13 |  | inactive | - | CC1OC(OC2C(Oc3cc(O)c(C4OC(C)C(O)C(O)C4OC(=O)C=Cc4ccccc4)c(O)c3C(=O)CCc3ccc(O)cc3)OC(CO)C2O)C(O)C(O)C1O (centres unmarked) [Compound 9, carambolaside I]
14 |  | inactive | - | CC(=O)OC1C(C)OC(c2c(O)cc(OC3OC(CO)C(O)C3OC3OC(C)C(O)C(O)C3O)c(C(=O)CCc3ccc(O)cc3)c2O)C(OC(=O)C=Cc2ccc(O)cc2)C1OC1OC(C)C(O)C(O)C1O (centres unmarked) [Compound 11, Mix of 4″-O-acetyl-carambolaside P and 4″-O-acetyl-carambolaside O]
15 | 853.1 ± 0.02 | moderate inhibitory activity |  | O=C(CCc1ccc(O)cc1)c1c(O)cc(O)cc1O[C@@H]1O[C@H](CO)[C@@H](O)[C@H](O)[C@H]1O [Phloridzin, phloretin-2′-glucose, reference compound]
